# Literature values in patent EP4659594A1, “ORAL PRODUCTS CONTAINING MODIFIED NICOTINE-POLYMER COMPLEX” (Nicoventures Trading Limited, priority 2024, dated 2025).
# Details: octanol/water; source of the values not stated
row,Compound,logP
1,CCCCCCCS(=O)(=O)O [1-heptanesulfonic acid],2.0
2,isopropyl benzoic acid,3.5
3,CCCCCCCCCCCC(=O)O [dodecanoic acid],4.6
4,ethyl benzoic acid,2.9
5,CC(C)[C@@H]1CC[C@@H](C)C[C@H]1OC(=O)CCC(=O)O [monomenthyl succinate],3
